Measured values taken from US20230278972A1, “SUBSTITUTED HALOALKYL SULFONANILIDE HERBICIDES” (FMC Corporation, priority 2020, published 2023).

Tests used:
Format in all cases: in vivo
[1] = test system: Ryegrass, Italian (Italian ryegrass, Lolium multiflorum); assay: Test A preemergence, Ryegrass, Italian; details: Preemergence; for Ryegrass, Italian plant response rating: 125 g ai/ha, visual injury on 0 to 100 scale (0 no effect, 100 complete control), approximately 10 days; for Plant response rating, Ryegrass, Italian: 0 to 100 scale (0 no effect, 100 complete control)
Summary of the method: (§1)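 Whole-plant herbicidal screen in pots of loam blended with sand. Sprays used a surfactant-containing, non-phytotoxic solvent vehicle. Timing was preemergence soil-directed at planting or postemergence at the one- to two-leaf stage (2–10 cm).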

[2] = test system: Foxtail, Giant (giant foxtail, Setaria faberi); assay: Test A postemergence, Foxtail, Giant; details: Postemergence, 0 to 100 scale (0 no effect, 100 complete control); for Foxtail, Giant plant response rating: 500 g ai/ha, visual injury vs untreated controls after approx. 10 days
Summary of the method: as §1

corn (Zea mays) = assay: Test A postemergence, corn; details: Postemergence, 0 to 100 scale (0 no effect, 100 complete control); for Corn plant response rating: 500 g ai/ha, visual injury vs untreated controls after approx. 10 days
Summary of the method: as §1

[3] = test system: pigweed (Amaranthus retroflexus); assay: Test A postemergence, pigweed; details: Postemergence, 0 to 100 scale (0 no effect, 100 complete control); for Pigweed plant response rating: 500 g ai/ha, visual injury vs untreated controls after approx. 10 days
Summary of the method: as §1

[4] = test system: wheat (Triticum aestivum); assay: Test A postemergence, wheat; details: Postemergence, 0 to 100 scale (0 no effect, 100 complete control); for Wheat plant response rating: 500 g ai/ha, visual injury vs untreated controls after approx. 10 days
Summary of the method: (§2)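 Compounds in non-phytotoxic solvent with surfactant. Soil: loam/sand. Preemergence via directed soil spray after seeding; postemergence on seedlings 2–10 cm, one- to two-leaf.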

kochia (Bassia scoparia) [5] = assay: Test A preemergence, kochia; details: Preemergence; for Kochia plant response rating: 125 g ai/ha, visual injury on 0 to 100 scale (0 no effect, 100 complete control), approximately 10 days; for Plant response rating, Kochia: 0 to 100 scale (0 no effect, 100 complete control)
Summary of the method: as §1

[6] = test system: pigweed (Amaranthus retroflexus); assay: Test A preemergence, pigweed; details: for Pigweed plant response rating: 125 g ai/ha, visual injury on 0 to 100 scale (0 no effect, 100 complete control), approximately 10 days; for Plant response rating, Pigweed: 0 to 100 scale (0 no effect, 100 complete control)
Summary of the method: as §2

[7] = test system: ragweed (common ragweed, Ambrosia artemisiifolia); assay: Test A postemergence, ragweed; details: Postemergence, 0 to 100 scale (0 no effect, 100 complete control); for Ragweed plant response rating: 500 g ai/ha, visual injury vs untreated controls after approx. 10 days
Summary of the method: as §1

[8] = test system: barnyardgrass (Echinochloa crus-galli); assay: Test A postemergence, barnyardgrass; details: Postemergence, 0 to 100 scale (0 no effect, 100 complete control); for Barnyardgrass plant response rating: 500 g ai/ha, visual injury vs untreated controls after approx. 10 days
Summary of the method: as §2

[9] = test system: blackgrass (Alopecurus myosuroides); assay: Test A postemergence, blackgrass; details: Postemergence, 0 to 100 scale (0 no effect, 100 complete control); for Blackgrass plant response rating: 500 g ai/ha, visual injury vs untreated controls after approx. 10 days
Summary of the method: as §1

kochia (Bassia scoparia) [10] = assay: Test A postemergence, kochia; details: Postemergence, 0 to 100 scale (0 no effect, 100 complete control); for Kochia plant response rating: 500 g ai/ha, visual injury vs untreated controls after approx. 10 days
Summary of the method: as §1

[11] = test system: Foxtail, Giant (giant foxtail, Setaria faberi); assay: Test A preemergence, Foxtail, Giant; details: Preemergence; for Foxtail, Giant plant response rating: 125 g ai/ha, visual injury on 0 to 100 scale (0 no effect, 100 complete control), approximately 10 days; for Plant response rating, Foxtail, Giant: 0 to 100 scale (0 no effect, 100 complete control)
Summary of the method: as §1

[12] = test system: ragweed (common ragweed, Ambrosia artemisiifolia); assay: Test A preemergence, ragweed; details: Preemergence; for Ragweed plant response rating: 125 g ai/ha, visual injury on 0 to 100 scale (0 no effect, 100 complete control), approximately 10 days; for Plant response rating, Ragweed: 0 to 100 scale (0 no effect, 100 complete control)
Summary of the method: as §1

[13] = test system: barnyardgrass (Echinochloa crus-galli); assay: Test A preemergence, barnyardgrass; details: Preemergence; for Barnyardgrass plant response rating: 125 g ai/ha, visual injury on 0 to 100 scale (0 no effect, 100 complete control), approximately 10 days; for Plant response rating, Barnyardgrass: 0 to 100 scale (0 no effect, 100 complete control)
Summary of the method: as §1

[14] = test system: galium (catchweed bedstraw, Galium aparine); assay: Test A postemergence, galium; details: Postemergence, 0 to 100 scale (0 no effect, 100 complete control); for Galium plant response rating: 500 g ai/ha, visual injury vs untreated controls after approx. 10 days
Summary of the method: as §2

[15] = test system: Ryegrass, Italian (Italian ryegrass, Lolium multiflorum); assay: Test A postemergence, Ryegrass, Italian; details: Postemergence, 0 to 100 scale (0 no effect, 100 complete control); for Ryegrass, Italian plant response rating: 500 g ai/ha, visual injury vs untreated controls after approx. 10 days
Summary of the method: as §1

[16] = 125 g ai/ha, visual injury approx. 10 days
[17] = 31 g ai/ha, visual injury, approx. 10 days

Cc1cc(C)c(-n2ncccc2=O)cc1NS(=O)(=O)C(F)(F)F [Compound 83]
Ryegrass, Italian plant response rating [1]: 30 | Plant response rating, Ryegrass, Italian ([1]; 500 g ai/ha): 50 | Plant response rating, Foxtail, Giant [2, 16]: 0 | Foxtail, Giant plant response rating [2]: 40 | Plant response rating, Corn (corn (Zea mays); [16]): 0 | Corn plant response rating (corn (Zea mays)): 30 | Plant response rating, Pigweed [3, 16]: 40 | Pigweed plant response rating [3]: 50 | Plant response rating, Wheat [4, 16]: 0 | Wheat plant response rating [4]: 0 | Kochia plant response rating (kochia (Bassia scoparia) [5]): 60 | Plant response rating, Kochia (kochia (Bassia scoparia) [5]; 500 g ai/ha): 70 | Pigweed plant response rating [6]: 50 | Plant response rating, Pigweed ([6]; 500 g ai/ha): 90 | Plant response rating, Ragweed [7, 16]: 10 | Ragweed plant response rating [7]: 60 | Plant response rating, Barnyardgrass [8, 16]: 20 | Barnyardgrass plant response rating [8]: 70 | Plant response rating, Blackgrass [9, 16]: 0 | Blackgrass plant response rating [9]: 0 | Plant response rating, Kochia (kochia (Bassia scoparia) [10]; [16]): 0 | Kochia plant response rating (kochia (Bassia scoparia) [10]): 20 | Foxtail, Giant plant response rating [11]: 10 | Plant response rating, Foxtail, Giant ([11]; 500 g ai/ha): 80 | Ragweed plant response rating [12]: 0 | Plant response rating, Ragweed ([12]; 500 g ai/ha): 20 | Barnyardgrass plant response rating [13]: 70 | Plant response rating, Barnyardgrass ([13]; 500 g ai/ha): 80 | Plant response rating, Galium [14, 16]: 60 | Galium plant response rating [14]: 80 | Plant response rating, Ryegrass, Italian [15, 16]: 0 | Ryegrass, Italian plant response rating [15]: 0

Cc1cc(C)c(-n2nccc(C)c2=O)cc1NS(=O)(=O)C(F)(F)F [Compound 84]
Plant response rating, Ryegrass, Italian ([1]; 500 g ai/ha): 90 | Foxtail, Giant plant response rating [2]: 50 | Corn plant response rating (corn (Zea mays)): 60 | Pigweed plant response rating [3]: 30 | Wheat plant response rating [4]: 70 | Plant response rating, Kochia (kochia (Bassia scoparia) [5]; 500 g ai/ha): 70 | Plant response rating, Pigweed ([6]; 500 g ai/ha): 70 | Ragweed plant response rating [7]: 40 | Barnyardgrass plant response rating [8]: 80 | Blackgrass plant response rating [9]: 20 | Kochia plant response rating (kochia (Bassia scoparia) [10]): 0 | Plant response rating, Foxtail, Giant ([11]; 500 g ai/ha): 90 | Plant response rating, Ragweed ([12]; 500 g ai/ha): 0 | Plant response rating, Barnyardgrass ([13]; 500 g ai/ha): 80 | Galium plant response rating [14]: 50 | Ryegrass, Italian plant response rating [15]: 50

Cc1ccc(=O)n(-c2cc(NS(=O)(=O)C(F)(F)F)c(C)cc2C)n1 [Compound 85]
Ryegrass, Italian plant response rating [1]: 0 | Plant response rating, Ryegrass, Italian ([1]; 500 g ai/ha): 30 | Plant response rating, Foxtail, Giant [2, 16]: 0 | Foxtail, Giant plant response rating [2]: 0 | Plant response rating, Corn (corn (Zea mays); [16]): 0 | Corn plant response rating (corn (Zea mays)): 0 | Plant response rating, Pigweed [3, 16]: 20 | Pigweed plant response rating [3]: 40 | Plant response rating, Wheat [4, 16]: 0 | Wheat plant response rating [4]: 0 | Kochia plant response rating (kochia (Bassia scoparia) [5]): 60 | Plant response rating, Kochia (kochia (Bassia scoparia) [5]; 500 g ai/ha): 70 | Pigweed plant response rating [6]: 100 | Plant response rating, Pigweed ([6]; 500 g ai/ha): 100 | Plant response rating, Ragweed [7, 16]: 20 | Ragweed plant response rating [7]: 30 | Plant response rating, Barnyardgrass [8, 16]: 30 | Barnyardgrass plant response rating [8]: 20 | Plant response rating, Blackgrass [9, 16]: 0 | Blackgrass plant response rating [9]: 0 | Plant response rating, Kochia (kochia (Bassia scoparia) [10]; [16]): 0 | Kochia plant response rating (kochia (Bassia scoparia) [10]): 0 | Foxtail, Giant plant response rating [11]: 10 | Plant response rating, Foxtail, Giant ([11]; 500 g ai/ha): 90 | Ragweed plant response rating [12]: 0 | Plant response rating, Ragweed ([12]; 500 g ai/ha): 0 | Barnyardgrass plant response rating [13]: 70 | Plant response rating, Barnyardgrass ([13]; 500 g ai/ha): 70 | Plant response rating, Galium [14, 16]: 60 | Galium plant response rating [14]: 0 | Plant response rating, Ryegrass, Italian [15, 16]: 40 | Ryegrass, Italian plant response rating [15]: 30

COC1CCCN(C(=O)c2cc(N(C(=O)C(C)C)S(=O)(=O)C(F)(F)F)c(C)cc2C)C1 (stereo not drawn) [Compound 91]
Plant response rating, Ryegrass, Italian [1, 17]: 30 | Ryegrass, Italian plant response rating [1]: 50 | Plant response rating, Foxtail, Giant ([2]; 31 g ai/ha): 0 | Plant response rating, Foxtail, Giant [2, 16]: 10 | Plant response rating, Corn (corn (Zea mays); 31 g ai/ha): 0 | Plant response rating, Corn (corn (Zea mays); [16]): 0 | Plant response rating, Pigweed ([3]; 31 g ai/ha): 0 | Plant response rating, Pigweed [3, 16]: 40 | Plant response rating, Wheat ([4]; 31 g ai/ha): 10 | Plant response rating, Wheat [4, 16]: 60 | Plant response rating, Kochia (kochia (Bassia scoparia) [5]; [17]): 0 | Kochia plant response rating (kochia (Bassia scoparia) [5]): 60 | Plant response rating, Pigweed [6, 17]: 60 | Pigweed plant response rating [6]: 100 | Plant response rating, Ragweed ([7]; 31 g ai/ha): 0 | Plant response rating, Ragweed [7, 16]: 40 | Plant response rating, Barnyardgrass ([8]; 31 g ai/ha): 0 | Plant response rating, Barnyardgrass [8, 16]: 0 | Plant response rating, Blackgrass ([9]; 31 g ai/ha): 0 | Plant response rating, Blackgrass [9, 16]: 0 | Plant response rating, Kochia (kochia (Bassia scoparia) [10]; 31 g ai/ha): 10 | Plant response rating, Kochia (kochia (Bassia scoparia) [10]; [16]): 10 | Plant response rating, Foxtail, Giant [11, 17]: 20 | Foxtail, Giant plant response rating [11]: 100 | Plant response rating, Ragweed [12, 17]: 0 | Ragweed plant response rating [12]: 20 | Plant response rating, Barnyardgrass [13, 17]: 0 | Barnyardgrass plant response rating [13]: 90 | Plant response rating, Galium ([14]; 31 g ai/ha): 70 | Plant response rating, Galium [14, 16]: 70 | Plant response rating, Ryegrass, Italian ([15]; 31 g ai/ha): 0 | Plant response rating, Ryegrass, Italian [15, 16]: 10

COC1CCCN(C(=O)c2cc(N(C(C)=O)S(=O)(=O)C(F)(F)F)c(C)cc2C)C1 (stereo not drawn) [Compound 93]
Plant response rating, Ryegrass, Italian [1, 17]: 0 | Ryegrass, Italian plant response rating [1]: 80 | Plant response rating, Foxtail, Giant ([2]; 31 g ai/ha): 0 | Plant response rating, Foxtail, Giant [2, 16]: 10 | Plant response rating, Corn (corn (Zea mays); 31 g ai/ha): 0 | Plant response rating, Corn (corn (Zea mays); [16]): 20 | Plant response rating, Pigweed ([3]; 31 g ai/ha): 30 | Plant response rating, Pigweed [3, 16]: 50 | Plant response rating, Wheat ([4]; 31 g ai/ha): 30 | Plant response rating, Wheat [4, 16]: 60 | Plant response rating, Kochia (kochia (Bassia scoparia) [5]; [17]): 0 | Kochia plant response rating (kochia (Bassia scoparia) [5]): 50 | Plant response rating, Pigweed [6, 17]: 50 | Pigweed plant response rating [6]: 100 | Plant response rating, Ragweed ([7]; 31 g ai/ha): 30 | Plant response rating, Ragweed [7, 16]: 30 | Plant response rating, Barnyardgrass ([8]; 31 g ai/ha): 0 | Plant response rating, Barnyardgrass [8, 16]: 60 | Plant response rating, Blackgrass ([9]; 31 g ai/ha): 20 | Plant response rating, Blackgrass [9, 16]: 70 | Plant response rating, Kochia (kochia (Bassia scoparia) [10]; 31 g ai/ha): 10 | Plant response rating, Kochia (kochia (Bassia scoparia) [10]; [16]): 30 | Plant response rating, Foxtail, Giant [11, 17]: 60 | Foxtail, Giant plant response rating [11]: 80 | Plant response rating, Ragweed [12, 17]: 0 | Ragweed plant response rating [12]: 70 | Plant response rating, Barnyardgrass [13, 17]: 0 | Barnyardgrass plant response rating [13]: 80 | Plant response rating, Galium ([14]; 31 g ai/ha): 80 | Plant response rating, Galium [14, 16]: 80 | Plant response rating, Ryegrass, Italian ([15]; 31 g ai/ha): 0 | Plant response rating, Ryegrass, Italian [15, 16]: 20
